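Briefly, cells in 96-well plates were exposed to five compound concentrations for 48 h, and endpoints were estimated by linear interpolation. TGI: concentration producing complete growth inhibition.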

Our source for the TGI values is PubChem BioAssay (NCI).

Test systems include DMS 114 small cell lung; RXF-631 renal; XF 498 CNS; DLD-1 colon; MCF7 breast; PC-3 prostate; MDA-MB-231 breast; DU-145 prostate; NCI/ADR-RES ovarian; T-47D breast.
Test in all cases: DTP human tumour cell line panel, 48 h

For `C=C=C(C(=O)OC)S(=O)c1ccc([N+](=O)[O-])cc1[N+](=O)[O-]` (centres undefined), the concentration for total growth inhibition (TGI) with DMS 114 small cell lung was 45.6 µM; in the experiment on RXF-631 renal, over 69.7 µM; in the experiment on XF 498 CNS, over 71.2 µM; in the experiment on DLD-1 colon, 29.7 µM.
As for `Cc1nn(-c2ccccc2)c(-c2ccccc2[N+](=O)[O-])c1CC#N`, the concentration for total growth inhibition (TGI) with DMS 114 small cell lung, in the experiment with RXF-631 renal and with XF 498 CNS was over 100 µM each time.
Turning to `O=C1C2Cc3ccccc3CN2C(=O)N1CCN1CCCC1` (centres undefined), the total growth inhibition concentration (TGI) in the experiment on DMS 114 small cell lung, with RXF-631 renal, in the experiment with XF 498 CNS and in the experiment on DLD-1 colon was over 100 µM each time.
With `CCOC(=O)[C@H]1Nc2ccc(OC)cc2C2c3ccccc3CC21` (some centres undefined), the TGI in the experiment with DMS 114 small cell lung, with RXF-631 renal, in the experiment with XF 498 CNS and with DLD-1 colon was over 100 µM each time.
On to `CCOC(=O)COS(=O)(=O)C(F)(F)F`, for which the total growth inhibition concentration (TGI) in the experiment with DMS 114 small cell lung was 31.7 µM; with RXF-631 renal, over 100 µM; in the experiment with XF 498 CNS, over 100 µM; with DLD-1 colon, over 100 µM.
In the case of `O=C1CCC(O)=C1O`, the total growth inhibition concentration (TGI) in the experiment on DMS 114 small cell lung, with RXF-631 renal, in the experiment with XF 498 CNS and with DLD-1 colon was over 100 µM in each case.
For the compound `O=Cc1ccc(-c2cccs2)s1`, the TGI with MCF7 breast was 17.6 µM; with PC-3 prostate it was over 100 µM; in the experiment with MDA-MB-231 breast, over 100 µM; in the experiment with DMS 114 small cell lung it was over 100 µM; in the experiment on RXF-631 renal it was 12.9 µM; with XF 498 CNS, 11.5 µM. The TGI was over 74.9 µM in the experiment with DLD-1 colon, over 100 µM with DU-145 prostate, over 100 µM with NCI/ADR-RES ovarian and over 100 µM in the experiment on T-47D breast.
Consider `COC(=O)c1nc(N)[nH]c(=O)c1CCCCCc1c(C(=O)OC)nc(N)[nH]c1=O`, for which the TGI with DMS 114 small cell lung, with RXF-631 renal, in the experiment with XF 498 CNS and in the experiment on DLD-1 colon was over 50 µM throughout.
For the compound `Cc1c2cc[n+](C)cc2c(C)c2c1[nH]c1ccc(O)c(OCC(F)(F)F)c12`, the total growth inhibition concentration (TGI) with DMS 114 small cell lung is 8.04 µM; in the experiment with RXF-631 renal it was 15.4 µM; in the experiment with XF 498 CNS it was 10.6 µM; in the experiment with DLD-1 colon, 44.4 µM.
The matching figures for `COc1ccc2c(c1)[n+]([O-])c(/C(C)=N/NC(=O)CC#N)c[n+]2[O-]`: over 100 µM, over 100 µM, over 100 µM and over 100 µM.
The matching figures for `CCN(CC)c1ccc2c(c1)Nc1cc(=C(C#N)C#N)c3ccccc3c1=N2`: over 100 µM, over 100 µM, over 100 µM and over 100 µM.

As usually defined, the TGI is the concentration giving total growth inhibition.
